# Data published in ChEMBL document CHEMBL5523754, “Discovery of Biphenyl Derivatives to Target Hsp70-Bim Protein-Protein Interaction in Chronic Myeloid Leukemia by Scaffold Hopping Strategy” (J Med Chem, 2024).
# Calls of active or inactive are those of the source. The calls are words filed in the database; no cut-off is given here.
# How the values were obtained:
# [1] = species: Homo sapiens; test: Inhibition of BimBH3 peptide stimulated human N-terminal 6xHis tagged Hsp70 ATPase activity expressed in Escherichia coli BL21 (DE3) at 0 to 50 uM preincubated for 30 mins followed by ATP addition and measured after 10 mins by luciferin based luminescence analysis; conditions: dose 0-50 µM, time 40.0 min
# [2] = Inhibition of N-terminal 6xHis tagged human Hsp70 expressed in Escherichia coli BL21 (DE3)/FAM-labeled BimBH3 peptide (unknown origin) protein protein interaction incubated for 10 mins by fluorescence polarization assay
# [3] = species: Homo sapiens; test: Effect on human N-terminal 6xHis tagged HSP70 basal ATPase activity expressed in Escherichia coli BL21 (DE3) at 0 to 50 uM preincubated for 30 mins followed by ATP addition and measured after 10 mins by luciferin based luminescence analysis; conditions: dose 0-50 µM, time 40.0 min
# [4] = test system: K562; test: Inhibition of HSP70/Bim protein-protein interaction in human K562 cells assessed as reduction in AKT protein expression incubated for 12 hrs by Western blot analysis; assay type: cell-based
# [5] = Induction of apoptosis in human Imatinib-resistant K562-R3 cells incubated for 48 hrs by Annexin V-FITC staining based flow cytometry analysis; assay type: functional; conditions: Imatinib-resistant K562-R3 cell
# [6] = test system: BaF3; test: Induction of apoptosis in mouse BaF3 cells assessed as apoptotic rate at 15 uM incubated for 48 hrs by Annexin V-FITC staining based flow cytometry analysis relative to control; assay type: toxicity, cell-based; conditions: baf3, 48 h
# [7] = test system: K562; test: Inhibition of HSP70/Bim protein-protein interaction in human K562 cells assessed as reduction in Raf-1 protein expression incubated for 12 hrs by Western blot analysis; assay type: cell-based
# [8] = Binding affinity to N-terminal 6xHis tagged human HSP70 expressed in Escherichia coli BL21 (DE3) assessed as dissociation constant by ITC analysis
# [9] = test system: HEK293; test: Induction of apoptosis in HEK293 cells assessed as apoptotic rate at 15 uM incubated for 48 hrs by Annexin V-FITC staining based flow cytometry analysis relative to control; assay type: toxicity, cell-based; conditions: human, hek293, 48 h
# [10] = test system: K562; test: Inhibition of HSP70/Bim protein-protein interaction in human K562 cells assessed as reduction in eIF4E protein expression incubated for 12 hrs by Western blot analysis; assay type: cell-based
# [11] = test system: K562; test: Induction of apoptosis in human K562 cells incubated for 48 hrs by Annexin V-FITC staining based flow cytometry analysis; assay type: functional, cell-based; conditions: K562, 48 h
# [12] = Aqueous solubility of compound at pH 7 at 10 mg incubated for 24 hrs under shaking condition by HPLC method; assay type: physicochemical; conditions: aqueous medium
# [13] = test system: BV-173; test: Induction of apoptosis in human BV-173 cells incubated for 48 hrs by Annexin V-FITC staining based flow cytometry analysis; assay type: functional, cell-based; conditions: BV-173, 48 h
# [14] = test system: K562; test: Inhibition of HSP70/Bag3 protein-protein interaction in human K562 cells at 3 uM incubated for 12 hrs by coimmunoprecipitation analysis; assay type: cell-based
# [15] = Induction of apoptosis in HEK293 cells incubated for 48 hrs by Annexin V-FITC staining based flow cytometry analysis; assay type: toxicity, cell-based; conditions: human
# [16] = test system: K562; test: Inhibition of HSP70/Bim protein-protein interaction in human K562 cells at 5 uM incubated for 12 hrs by coimmunoprecipitation analysis; assay type: cell-based
# [17] = test system: K562; test: Inhibition of HSP70/Bag3 protein-protein interaction in human K562 cells at 5 uM incubated for 12 hrs by coimmunoprecipitation analysis; assay type: cell-based
# [18] = Induction of apoptosis in mouse BaF3 cells incubated for 48 hrs by Annexin V-FITC staining based flow cytometry analysis; assay type: toxicity, cell-based
# [19] = species: Homo sapiens; test: Inhibition of human N-terminal 6xHis tagged HSP70 basal ATPase activity expressed in Escherichia coli BL21 (DE3) at 0 to 50 uM preincubated for 30 mins followed by ATP addition and measured after 10 mins by luciferin based luminescence analysis; conditions: dose 0-50 µM, time 40.0 min
# [20] = test system: K562; test: Inhibition of HSP70/Bim protein-protein interaction in human K562 cells assessed as reduction in AKT protein expression at 2 uM incubated for 12 hrs by Western blot analysis; assay type: cell-based
# [21] = (§1) Inhibition of BimBH3 peptide stimulated human N-terminal 6xHis tagged Hsp70 ATPase activity expressed in Escherichia coli BL21 (DE3) preincubated for 30 mins followed by ATP addition and measured after 10 mins by luciferin based luminescence analysis
# [22] = species: Homo sapiens; test: as §1; conditions: time 40.0 min
# [23] = test system: K562; test: Induction of apoptosis in Bim shRNA-transfected human K562 cells assessed as increase in PARP cleavage at 2 uM incubated for 24 hrs by Western blot analysis; assay type: functional, cell-based
# [24] = test system: K562; test: Induction of apoptosis in Hsp70 shRNA-transfected human K562 cells assessed as increase in PARP cleavage at 2 uM incubated for 24 hrs by Western blot analysis; assay type: functional, cell-based
# [25] = test system: K562; test: Inhibition of HSP70/Bim protein-protein interaction in human K562 cells assessed as reduction in eIF4E protein expression at 2 uM incubated for 12 hrs by Western blot analysis; assay type: cell-based
# [26] = test system: K562; test: Inhibition of HSP70/Bim protein-protein interaction in human K562 cells incubated for 12 hrs by coimmunoprecipitation analysis; assay type: cell-based; conditions: dose 0.5-3 µM
# [27] = test system: K562; test: Inhibition of HSP70/Bag3 protein-protein interaction in human K562 cells at 0.5 to 3 uM incubated for 12 hrs by coimmunoprecipitation analysis; assay type: cell-based; conditions: dose 0.5-3 µM
# [28] = test system: K562; test: Inhibition of HSP70/Bim protein-protein interaction in human K562 cells assessed as reduction in Raf-1 protein expression at 2 uM incubated for 12 hrs by Western blot analysis; assay type: cell-based
SMILES,inhibition [1],IC50 [2],Activity [3],other results
O=C(Nc1ccc2ncn(CCN3CCOCC3)c2c1)NC1CCCCC1,Active,> 10 µM,inactive,–
CN(C)CCn1c(=O)oc2ccc(NC(=O)NC3CCCCC3)cc21,Active,> 10 µM,inactive,–
CCN(CC)CCNc1cc(-c2ccc(Oc3cc(C)c(Cl)c(C)c3)cc2)cc(O)c1C#N,Active,0.28 µM,inactive,–
CN(C)CCNc1cc(-c2ccc(Oc3ccccc3)cc2)cc(O)c1C#N,Active,2.13 µM,inactive,–
CN(C)CCNc1cc(-c2ccc(Oc3cc(C(C)(C)C)cc(C(C)(C)C)c3)cc2)cc(O)c1C#N,Active,0.88 µM,inactive,–
Cc1cc(C)cc(Oc2ccc(-c3cc(O)c(C#N)c(NCCN(C)C)c3)cc2)c1,Active,0.62 µM,inactive,–
CN(C)CCn1ccc2ccc(NC(=O)NC3CCCCC3)cc21,Active,> 10 µM,inactive,–
CN(C)CCNc1cc(-c2ccc(OC3CCCCC3)cc2)cc(O)c1C#N,Active,0.93 µM,inactive,–
O=C(Nc1ccc2ccn(CCN3CCOCC3)c2c1)NC1CCCCC1,Active,> 10 µM,inactive,–
CN(C)CCn1cnc2ccc(NC(=O)C3CCCCC3)cc21,Active,> 10 µM,inactive,–
Cc1cc(Oc2ccc(-c3cc(O)c(C#N)c(NCCN(C)C)c3)cc2)cc(C)c1N,Active,0.41 µM,inactive,–
CCN(CC)CCNC1=C(C#N)C(=O)c2cccc3c(SC4CCCCC4)ccc1c23,Active,0.8 µM,inactive,inhibition [4]: Active; EC50 [5]: 0.37 µM; Activity [6]: < 10%; inhibition [7]: Active; Kd [8]: 0.688 µM; Activity [9]: < 10%; inhibition [10]: Active; EC50 [11]: 1.2 µM; solubility thermodynamic at 24 h [12]: 7.19 µg/mL; EC50 [13]: 0.66 µM; inhibition [14]: inactive
CN(C)CCNc1cc(-c2ccc(OC3CCCCC3)cc2)cc(F)c1C#N,Active,8.2 µM,inactive,–
Cc1cc(-c2ccc(OC3CCCCC3)cc2)cc(NCCN(C)C)c1C#N,Active,> 10 µM,inactive,–
Cc1cc(Oc2ccc(-c3cc(O)c(C#N)c(NCCN(C)C)c3)cc2)cc(C)c1Cl,Active,0.33 µM,inactive,–
Cc1cccc(Oc2ccc(-c3cc(O)c(C#N)c(NCCN(C)C)c3)cc2)c1,Active,0.82 µM,inactive,–
CN(C)CCn1cnc2ccc(NC(=O)NC3CCCCC3)cc21,Active,> 10 µM,inactive,–
O=C(Nc1ccc2ccn(CCN3CCOCC3)c2c1)C1CCCCC1,Active,> 10 µM,inactive,–
N#Cc1ccc(COC[C@H]2O[C@@H](n3c(NCc4ccc(Cl)c(Cl)c4)nc4c(N)ncnc43)[C@H](O)[C@@H]2O)cc1,Active,–,–,EC50 [5]: 8.68 µM; EC50 at 48 h [15]: 6.46 µM; inhibition [16]: inactive; inhibition [17]: inactive; EC50 [11]: 7.05 µM; EC50 at 48 h [18]: 7.73 µM; inhibition [19]: Active; EC50 [13]: 5.64 µM
CN(C)CCNc1cc(-c2ccc(OC34CC5CC(CC(C5)C3)C4)cc2)cc(O)c1C#N,Active,8.8 µM,inactive,–
Cc1cc(Oc2ccc(-c3cc(O)c(C#N)c(NCCN4CCCCC4)c3)cc2)cc(C)c1Cl,–,0.07 µM,inactive,EC50 [5]: 0.19 µM; Activity [6]: < 10%; Kd [8]: 0.123 µM; Activity [9]: < 10%; inhibition [20]: Active; IC50 [21]: 4.89 µM; inhibition [22]: Dose-Dependent Effect; Activity [23]: inactive; Activity [24]: inactive; inhibition [25]: Active; EC50 [11]: 0.88 µM; inhibition [26]: Dose-Dependent Effect; inhibition [27]: inactive; solubility thermodynamic at 24 h [12]: 29.4 µg/mL; inhibition [28]: Active; EC50 [13]: 0.43 µM
CCN(CC)CCn1cnc2ccc(NC(=O)NC3CCCCC3)cc21,Active,> 10 µM,inactive,–
CN(C)CCNc1cc(-c2ccc(OC3CCCCC3)cc2)cc(CC(=O)O)c1C#N,Active,3.6 µM,inactive,–
Cc1cc(Oc2ccc(-c3cc(O)c(C#N)c(NCCN4CCCC4)c3)cc2)cc(C)c1Cl,Active,0.09 µM,inactive,–
